“And” between values parts separate entries of the source, which are not always exact repeats. Equal entries are not always repeated.
Columns and labels:
[1] = test system: Subtyp H2N2 A/Singapore 1/57; type: cell-based, Influenzaviren Typ A
[2] = test system: Subtyp H3N2 A/Philippines 2/82; type: cell-based, Influenzaviren Typ A
[3] = test system: Subtyp H1N1 A/Brasil 11/78; type: cell-based, Influenzaviren Typ A
A/Krasnodar 101/59 = type: cell-based, Influenzaviren Typ A
[4] = test system: Subtyp H3N2 A/Hongkong 1/68; type: cell-based, Influenzaviren Typ A
Typ B B/Singapore 222/79 = type: cell-based, Influenzaviren Typ B
[5] = test system: Influenzavirus Typ A Subtyp H1N1 A/Taiwan 1/86; type: cell-based
Influenzaviren vom Typ B = assay: Inhibitory effect on influenza viruses of type B; type: cell-based; settings: statement in words

Compound: c1cnc(C23CC4CC(CC(C4)C2)C3)cn1 [2-(Adamant-1-yl)-pyrazin, 2-(Adamant-1-yl-)-pyrazin]
- Titerdifferenz (log 10) [1]: 1,51 log 10 and 1,33 log 10 and 1,17 log 10
- ID50 mit Wirkstoff (log 10) [2]: 5,5 log 10
- Titerdifferenz (log 10) [2]: 0,33 log 10 and 0,83 log 10

Compound: Nc1nccc(C23CC4CC(CC(C4)C2)C3)n1 [4-(Adamant-1-yl)-2-amino-pyrimidin, 4-(Adamant-1-yl)-2-aminopyrimidin]
- Titerdifferenz (log 10) [1]: 1,55 log 10 and 1,67 log 10
- Titerdifferenz (log 10) [3]: 2,8 log 10 and 2,0 log 10

Compound: c1cc(C23CC4CC(CC(C4)C2)C3)ncn1 [4-(Adamant-1-yl)-pyrimidin]
- Titerdifferenz (log 10) [1]: 1,33 log 10 and 1,5 log 10 and 1,34 log 10
- ID50 mit Wirkstoff (log 10) [2]: 5,17 log 10

Compound: Cc1cncc(C23CC4CC(CC(C4)C2)C3)n1 [6-(Adamant-1-yl)-2-methyl-pyrazin, 6-(Adamant-1-yl)-2-methylpyrazin]
- ID50 mit Wirkstoff (log 10) [3]: 3,33 log 10 and 3,67 log 10
- Titerdifferenz (log 10) [3]: 1,97 log 10 and 1,66 log 10

Compound: Cc1cc(C23CC4CC(CC(C4)C2)C3)ncn1 [6-(Adamant-1-yl)-4-methyl-pyrimidin, 6-(Adamant-1-yl)-4-methylpyrimidin]
- ID50 mit Wirkstoff (log 10) [2]: 5,0 log 10 and 5,67 log 10
- ID50 mit Wirkstoff (log 10) [3]: 3,83 log 10 and 3,33 log 10 and 3,0 log 10
- ID50 mit Wirkstoff (log 10) (A/Krasnodar 101/59): 2,5 log 10
- Titerdifferenz (log 10) (A/Krasnodar 101/59): 2,5 log 10
- ID50 mit Wirkstoff (log 10) [4]: 3,83 log 10
- Titerdifferenz (log 10) [4]: 0,92 log 10
- ID50 mit Wirkstoff (log 10) (Typ B B/Singapore 222/79): 5,67 log 10
- Titerdifferenz (log 10) (Typ B B/Singapore 222/79): 0,66 log 10 and 0,5 log 10

Compound: CC(N)C12CC3CC(CC(C3)C1)C2.Cl (stereo not drawn) [Rimantadin, α-Methyl-1-adamantanmethylaminhydrochlorid]
- ID₅₀ (log 10) mit Wirkstoff [1]: 2,5 log 10
- Titerreduktion (log 10) [2]: 0,17 log 10
- Titerreduktion (log 10) [5]: 1,5 log 10 and 1,84 log 10
- Hemmwirkung gegenüber Influenzaviren vom Typ B (Influenzaviren vom Typ B): nicht spezifisch wirksam

From patent EP0358152A1, “Diazine-substituted 1-adamantanes, process for their preparation, and their use as medicaments” (priority 1988, dated 1990)
